Results as given in the NIST ThermoML archive (doi:10.1016/j.jct.2012.12.001).
Values joined by “and” are separate entries in the source; they are usually repeats but may differ in a detail not shown here. Equal entries are not always repeated. ± gives the expanded uncertainty stated by the source.

Assay: heat capacity at constant pressure per volume; xn = mol fraction of the nth substance listed
Details: 101 kPa, Liquid, DSC, x2 = 0.695

CCCCCCCCCCCCCCCCC [heptadecane] + N#Cc1ccccc1
Details	heat capacity
319 K	1720700 ± 20000 J/K/m3
319.1 K	1720600 ± 20000 J/K/m3
319.2 K	1720500 ± 20000 J/K/m3
319.3 K	1720600 ± 20000 J/K/m3
319.5 K	1721300 ± 20000 J/K/m3
319.6 K	1721200 ± 20000 J/K/m3
319.7 K	1720900 ± 20000 J/K/m3
319.8 K	1720700 ± 20000 J/K/m3
319.9 K	1720500 ± 20000 J/K/m3
320 K	1720400 ± 20000 J/K/m3
320.1 K	1720500 ± 20000 J/K/m3
320.2 K	1720300 ± 20000 J/K/m3
320.3 K	1720800 ± 20000 J/K/m3
320.4 K	1720700 ± 20000 J/K/m3
320.5 K	1720400 ± 20000 J/K/m3
320.61 K	1720200 ± 20000 J/K/m3
320.7 K	1720000 ± 20000 J/K/m3
320.8 K	1720000 ± 20000 J/K/m3
320.9 K	1719900 ± 20000 J/K/m3
321 K	1720300 ± 20000 J/K/m3
321.1 K	1720600 ± 20000 J/K/m3
321.2 K	1720600 ± 20000 J/K/m3
321.3 K	1720600 ± 20000 J/K/m3
321.4 K	1720400 ± 20000 J/K/m3
321.5 K	1720000 ± 20000 J/K/m3
321.61 K	1719900 ± 20000 J/K/m3
321.7 K	1720100 ± 20000 J/K/m3
321.8 K	1720100 ± 20000 J/K/m3
321.89 K	1720400 ± 20000 J/K/m3
322 K	1720500 ± 20000 J/K/m3
322.1 K	1720500 ± 20000 J/K/m3
322.2 K	1720100 ± 20000 J/K/m3
322.3 K	1720100 ± 20000 J/K/m3
322.4 K	1720300 ± 20000 J/K/m3
322.5 K	1720600 ± 20000 J/K/m3
322.6 K	1720600 ± 20000 J/K/m3
322.7 K	1720800 ± 20000 J/K/m3
322.81 K	1721200 ± 20000 J/K/m3
322.9 K	1720800 ± 20000 J/K/m3
323 K	1720200 ± 20000 J/K/m3
323.11 K	1720200 ± 20000 J/K/m3
323.2 K	1720100 ± 20000 J/K/m3
323.3 K	1720100 ± 20000 J/K/m3
323.4 K	1720200 ± 20000 J/K/m3
323.5 K	1720700 ± 20000 J/K/m3
323.6 K	1720800 ± 20000 J/K/m3
323.7 K	1720800 ± 20000 J/K/m3
323.8 K	1720500 ± 20000 J/K/m3
323.9 K	1720400 ± 20000 J/K/m3
324 K	1720200 ± 20000 J/K/m3
324.1 K	1720200 ± 20000 J/K/m3
324.2 K	1720200 ± 20000 J/K/m3
324.3 K	1720300 ± 20000 J/K/m3
324.4 K	1720500 ± 20000 J/K/m3
324.5 K	1720500 ± 20000 J/K/m3
324.6 K	1720500 ± 20000 J/K/m3
324.7 K	1720600 ± 20000 J/K/m3
324.8 K	1720600 ± 20000 J/K/m3
324.9 K	1720400 ± 20000 J/K/m3
325 K	1720700 ± 20000 J/K/m3
325.1 K	1720700 ± 20000 J/K/m3
325.2 K	1720400 ± 20000 J/K/m3
325.3 K	1719500 ± 20000 J/K/m3
325.4 K	1720300 ± 20000 J/K/m3
325.5 K	1720500 ± 20000 J/K/m3
325.6 K	1720300 ± 20000 J/K/m3
325.7 K	1720400 ± 20000 J/K/m3
325.8 K	1720200 ± 20000 J/K/m3
325.9 K	1720200 ± 20000 J/K/m3
326 K	1720600 ± 20000 J/K/m3
326.1 K	1720900 ± 20000 J/K/m3
326.2 K	1720900 ± 20000 J/K/m3
326.3 K	1720900 ± 20000 J/K/m3
326.4 K	1720400 ± 20000 J/K/m3
326.5 K	1720200 ± 20000 J/K/m3
326.6 K	1720300 ± 20000 J/K/m3
326.7 K	1720400 ± 20000 J/K/m3
326.8 K	1720400 ± 20000 J/K/m3
326.9 K	1720700 ± 20000 J/K/m3
327 K	1721000 ± 20000 J/K/m3
327.1 K	1721000 ± 20000 J/K/m3
327.2 K	1721100 ± 20000 J/K/m3
327.3 K	1720800 ± 20000 J/K/m3
327.41 K	1720500 ± 20000 J/K/m3
327.5 K	1720400 ± 20000 J/K/m3
327.6 K	1720500 ± 20000 J/K/m3
327.7 K	1721000 ± 20000 J/K/m3
327.8 K	1721200 ± 20000 J/K/m3
327.9 K	1720800 ± 20000 J/K/m3
328 K	1720800 ± 20000 J/K/m3
328.1 K	1720800 ± 20000 J/K/m3
328.2 K	1720900 ± 20000 J/K/m3
328.3 K	1720700 ± 20000 J/K/m3
328.4 K	1720800 ± 20000 J/K/m3
328.5 K	1721000 ± 20000 J/K/m3
328.6 K	1721500 ± 20000 J/K/m3
328.7 K	1721400 ± 20000 J/K/m3
328.8 K	1721200 ± 20000 J/K/m3
328.9 K	1721300 ± 20000 J/K/m3
329 K	1720900 ± 20000 J/K/m3
329.1 K	1720900 ± 20000 J/K/m3
329.2 K	1720800 ± 20000 J/K/m3
329.3 K	1720700 ± 20000 J/K/m3
329.4 K	1721000 ± 20000 J/K/m3
329.5 K	1721100 ± 20000 J/K/m3
329.61 K	1721300 ± 20000 J/K/m3
329.7 K	1721300 ± 20000 J/K/m3
329.8 K	1721400 ± 20000 J/K/m3
329.9 K	1721400 ± 20000 J/K/m3
330 K	1721300 ± 20000 J/K/m3
330.1 K	1722000 ± 20000 J/K/m3
330.2 K	1722500 ± 20000 J/K/m3
330.3 K	1722400 ± 20000 J/K/m3
330.4 K	1722100 ± 20000 J/K/m3
330.5 K	1721600 ± 20000 J/K/m3
330.61 K	1721600 ± 20000 J/K/m3
330.7 K	1721300 ± 20000 J/K/m3
330.8 K	1721300 ± 20000 J/K/m3
330.9 K	1721300 ± 20000 J/K/m3
331 K	1721500 ± 20000 J/K/m3
331.1 K	1721700 ± 20000 J/K/m3
331.2 K	1721500 ± 20000 J/K/m3
331.3 K	1721200 ± 20000 J/K/m3
331.4 K	1721400 ± 20000 J/K/m3
331.5 K	1721300 ± 20000 J/K/m3
331.6 K	1721300 ± 20000 J/K/m3
331.7 K	1721500 ± 20000 J/K/m3
331.81 K	1721700 ± 20000 J/K/m3
331.9 K	1722000 ± 20000 J/K/m3
332 K	1722000 ± 20000 J/K/m3
332.1 K	1721900 ± 20000 J/K/m3
332.2 K	1722100 ± 20000 J/K/m3
332.3 K	1722100 ± 20000 J/K/m3
332.4 K	1722000 ± 20000 J/K/m3
332.5 K	1722000 ± 20000 J/K/m3
332.6 K	1722200 ± 20000 J/K/m3
332.7 K	1722600 ± 20000 J/K/m3
332.8 K	1722700 ± 20000 J/K/m3
332.9 K	1722700 ± 20000 J/K/m3
333 K	1722600 ± 20000 J/K/m3
333.1 K	1722200 ± 20000 J/K/m3
333.2 K	1721900 ± 20000 J/K/m3
333.31 K	1721900 ± 20000 J/K/m3
333.4 K	1722000 ± 20000 J/K/m3
333.5 K	1722000 ± 20000 J/K/m3
333.6 K	1722200 ± 20000 J/K/m3
333.7 K	1722700 ± 20000 J/K/m3
333.8 K	1722800 ± 20000 J/K/m3
333.9 K	1722600 ± 20000 J/K/m3
334 K	1722600 ± 20000 J/K/m3
334.1 K	1722700 ± 20000 J/K/m3
334.2 K	1722600 ± 20000 J/K/m3
334.3 K	1722900 ± 20000 J/K/m3
334.4 K	1723400 ± 20000 J/K/m3
334.5 K	1723900 ± 20000 J/K/m3
334.6 K	1723800 ± 20000 J/K/m3
334.7 K	1723400 ± 20000 J/K/m3
334.8 K	1723000 ± 20000 J/K/m3
334.9 K	1722900 ± 20000 J/K/m3
335 K	1723100 ± 20000 J/K/m3
335.1 K	1723300 ± 20000 J/K/m3
335.2 K	1723600 ± 20000 J/K/m3
335.3 K	1723700 ± 20000 J/K/m3
335.4 K	1723700 ± 20000 J/K/m3
335.5 K	1723700 ± 20000 J/K/m3
335.6 K	1723600 ± 20000 J/K/m3
335.7 K	1723500 ± 20000 J/K/m3
335.8 K	1723300 ± 20000 J/K/m3
335.9 K	1723400 ± 20000 J/K/m3
336 K	1723600 ± 20000 J/K/m3
336.1 K	1723400 ± 20000 J/K/m3
336.2 K	1723600 ± 20000 J/K/m3
336.3 K	1723200 ± 20000 J/K/m3
336.4 K	1723100 ± 20000 J/K/m3
336.5 K	1723300 ± 20000 J/K/m3
336.6 K	1723400 ± 20000 J/K/m3
336.7 K	1723700 ± 20000 J/K/m3
336.8 K	1724100 ± 20000 J/K/m3
336.9 K	1724400 ± 20000 J/K/m3
337 K	1724100 ± 20000 J/K/m3
337.1 K	1724200 ± 20000 J/K/m3
337.18 K	1724100 ± 20000 J/K/m3
337.32 K	1723700 ± 20000 J/K/m3
337.43 K	1723700 ± 20000 J/K/m3
337.52 K	1724100 ± 20000 J/K/m3
337.6 K	1724300 ± 20000 J/K/m3
337.73 K	1724500 ± 20000 J/K/m3
337.8 K	1724400 ± 20000 J/K/m3
337.9 K	1724900 ± 20000 J/K/m3
338 K	1724800 ± 20000 J/K/m3
338.01 K	1724800 ± 20000 J/K/m3
338.02 K	1724900 ± 20000 J/K/m3
338.03 K	1724900 ± 20000 J/K/m3
338.45 K	1724800 ± 20000 J/K/m3 and 1724900 ± 20000 J/K/m3
338.53 K	1725300 ± 20000 J/K/m3
338.58 K	1725400 ± 20000 J/K/m3
338.59 K	1725200 ± 20000 J/K/m3
338.6 K	1725300 ± 20000 J/K/m3
338.62 K	1725200 ± 20000 J/K/m3
339 K	1724600 ± 20000 J/K/m3 and 1724700 ± 20000 J/K/m3
339.01 K	1724600 ± 20000 J/K/m3 and 1724500 ± 20000 J/K/m3
339.1 K	1724700 ± 20000 J/K/m3 and 1724600 ± 20000 J/K/m3
339.11 K	1724700 ± 20000 J/K/m3 and 1724800 ± 20000 J/K/m3
339.13 K	1724700 ± 20000 J/K/m3
339.2 K	1725100 ± 20000 J/K/m3
